Consider one compound from patent publication EP4663640A1 (Shanghai Institute of Materia Medica, Chinese Academy of …, priority 2023, dated 2024).

Data set [1] is described as follows: Liver microsome stability test, human. (Microsomes from liver hold many membrane-bound enzymes, among them those of drug oxidation.)
Data set [2] has as its system mice. Put plainly: Tail suspension test (antidepression). It is filed as in vivo. As to the method:
(§1) The drug to be tested was dissolved in DMSO: Tween 80: distilled water at a ratio of 2:2:96 (v/v/v), and then administered to mice by gavage at a volume of 10 mL/kg. […] The blank control group was only given 10 mL/kg of the above solvent.
The mouse tail suspension test (TST) is a widely used experimental method to evaluate the effectiveness of antidepressants and other psychotropic drugs. The principle of the test is to suspend a mouse by its tail and observe its behavior. The mouse will initially struggle to escape, but when it realizes that escape is impossible, it will eventually stop struggling and enter a state of immobility that indicates despair. This immobility behavior is used to measure depression-like states, and the severity of the condition is assessed by recording the duration of immobility.
The same mouse was subjected to the tail suspension test immediately after the marble burying test. A tail suspension test box was built using a black frosted acrylic board, 55 cm high, 15 cm long, and 11.5 cm wide. The three sides and top of the box were frosted blackboards, and one side was used for video recording. The mouse tail was wrapped with yellow tape 2 cm away from the tip of the tail, and the mouse was hung upside down in the middle of the top acrylic board. The tip of the mouse tail was about 3 cm away from the acrylic board, and the body was suspended and could not touch the surrounding board wall. The test time for each mouse lasted for 6 minutes, and the immobility time of the mouse during this time was counted. After the experiment, the mouse was returned to the cage, and the inside of the box and the table were wiped with alcohol to remove the smell of the previous mouse to prevent affecting the next mouse experiment. The criteria for immobility in the tail suspension test: stop struggling, no flexion or twisting of the body, no swinging of the hind limbs, and slight swinging of the forelimbs and head were also counted as immobility time.

Data set [3] has as its system mice. The experiment in a line: Marble burial test (antianxiety). The settings on record: for number of buried marbles: test with reduced dosage (Figure 5). It is filed as in vivo. How it is done:
as §1
The mouse marble burial test is a behavioral assay used for the screening of antianxiety drugs. It exploits the natural digging behavior of mice in environments such as burrows or escape tunnels and is sensitive to small changes in behavior caused by genetic manipulation, disease, or drug treatment.
A 5cm thick sawdust litter was laid in a 33 cm×24 cm×28 cm carton, and 4×5 black marbles (4 cm apart) with a total of 20 black marbles of 14mm in diameter were neatly placed on the litter. The mouse was put into the carton facing the corner for 30 minutes. After 30 minutes, the mouse was carefully taken out and the number of marbles buried by the mouse was counted. If more than 2/3 of the marble was buried, it was considered a whole marble. First, a blank experiment was conducted. Before the experiment, the mouse was taken to the experimental environment to adapt. After 1 hour, the experiment began. After the experiment, the mouse was returned to the cage and the number of marbles buried by the mouse was counted. On the second day, the mouse was taken to the experimental environment to adapt for 1 hour before the drug was administered. After the drug administration, the marble burying experiment was conducted for […]. After the experiment, the mouse was carefully taken out and returned to the cage to prevent the mouse from escaping violently and affecting the experimental results. After counting, the black marbles were taken out and wiped with alcohol, and the litter was turned over again to remove the smell of the previous mouse to prevent it from affecting the experiment of the next mouse. The marbles were neatly placed for the experiment of the next mouse.

A short description of data set [4]: Tissue distribution in rats. It is filed as in vivo, SD rats. Particulars: 2 hours after oral administration of 10 mg/kg, brain, heart, liver, spleen, lung, kidney, colon, muscle versus plasma (Figure 2). As to the method:
(§2) Intravenous (IV) administration: the drug to be tested was dissolved in DMSO/Solutol/normal saline at a ratio of 5:5:90 (v/v/v), with a concentration of 0.2 mg/mL, and the administration volume was 5 mL/kg. Oral (PO) administration: the drug to be tested was dissolved in DMSO/Tween 80/0.5% CMC-Na solution at a ratio of 2:2:96 (v/v/v), with a concentration of 1 mg/mL, and the administration volume was 10 mL/kg.
Male SD rats weighing 180-280g, 3 rats in each group, fasted for 12h before the experiment, had free access to water, and ate uniformly 4 h after administration. In the IV group, the rat tail vein was administered with a dose of 1mg/kg, and blood was collected at 0.083, 0.25, 0.5, 1.0, 2.0, 4.0, 6.0, 8.0, 12 and 24 h after administration. PO group, administered by gavage at a dose of 10 mg/kg, blood was collected at 0.25, 0.5, 1.0, 2.0, 4.0, 6.0, 8.0, 12 and 24 h after administration. At the above time points, 0.2 mL of blood was collected from the jugular vein and placed in an anticoagulant tube containing EDTA-K2. […] The drug concentration in the samples was quantified using LC-MS/MS method. Relevant pharmacokinetic parameters Tmax, Cmax, AUC0-∞, t1/2, etc. were calculated using WinNonlin software.

The nature of data set [5]: Liver microsome stability test, mouse. It counts as in vitro ADME. The settings on record: Mouse liver microsomes. An excerpt:
Calculation of Intrinsic Clearance: Clint = (1000 × slope)/(P); [formula]

Data set [6] in a line: Pharmacokinetics in rats (oral and intravenous). It is filed as in vivo, SD rats. As to the method: as §2
Male SD rats weighing 180-280g, 3 rats in each group, fasted for 12h before the experiment, had free access to water, and ate uniformly 4 h after administration. In the IV group, the rat tail vein was administered with a dose of 1mg/kg, and blood was collected at 0.083, 0.25, 0.5, 1.0, 2.0, 4.0, 6.0, 8.0, 12 and 24 h after administration. PO group, administered by gavage at a dose of 10 mg/kg, blood was collected at 0.25, 0.5, 1.0, 2.0, 4.0, 6.0, 8.0, 12 and 24 h after administration. At the above time points, 0.2 mL of blood was collected from the jugular vein and placed in an anticoagulant tube containing EDTA-K2. After the whole blood was collected, it was temporarily stored in an ice water bath, centrifuged at 11000 rpm for 5 min within 30min, the plasma was separated, and then frozen in a -70 °C refrigerator for testing. Tissue distribution group, oral administration, dose of 10mg/kg, 2h after drug administration, rats were anesthetized, bled through the abdominal aorta, and immediately dissected to collect brain, heart, liver, spleen, lung, kidney, colon, muscle. Part of the whole blood was collected and operated in an ice bath. The whole blood was centrifuged at 11000 rpm for 5 min within 30 min, and plasma (about 200 µL) was separated. After the tissue and plasma were collected, they were stored below -60 °C for testing. After each tissue was accurately weighed, the homogenizing reagent acetonitrile-water (1:1, v/v) was added for homogenization, wherein the raion of tissue to homogenizing reagent was 1:4 (g:mL). After homogenization, the samples were sonicated for 10 min, and the supernatant was taken after centrifugation for detection. The drug concentration in the samples was quantified using LC-MS/MS method. Relevant pharmacokinetic parameters Tmax, Cmax, AUC0-∞, t1/2, etc. were calculated using WinNonlin software.

Setting [7] is: male, SD, rat, plasma, 1 mg/kg (IV).
Where [8] appears, read: male, SD, rat, plasma, 10 mg/kg (PO).

Usually AUC(0-inf) stands for total exposure, with the tail of the curve extrapolated. Lower therefore signals less exposure. The Cmax is the peak of the concentration-time curve. As a reminder, the Tmax is the time at which the peak concentration occurs.

Values joined by “and” are separate entries in the source; they are usually repeats but may differ in a detail not shown here. Identical values can stand only once.

As to `Cn1c(=O)n(CCCO)c(=O)c2c1nc(C1(F)CCC(F)(F)CC1)n2Cc1ccc(F)c(Cl)c1` [Example E68, 7-(3-chloro-4-fluorobenzyl)-1-(3-hydroxypropyl)-3-methyl-8-(1,4,4-trifluorocyclohexyl)-3,7-dihydro-1H-purine-2,6-dione], the “Stability Evaluation” value is given as “Medium (30%<MF%<70%, medium metabolic stability)” in data set [1] (Human liver microsomes) and “Medium (30%<MF%<70%, medium metabolic stability)” in data set [5]. Moreover, the MF % in data set [1] (Human liver microsomes, metabolic bioavailability) is reported as 55.2%; in data set [5] (metabolic bioavailability) it was 49.3%. Further, the half-life at 1 µM worked out at 2.2 h in data set [1] (human, liver microsomes, pH 7.4) and 0.767 h in data set [5] (pH 7.4, 1µM compound, read-out: Half-life T1/2). Moreover, the “immobility time of mice in the tail suspension box” value in data set [2] (oral 0.03 mg/kg, test with reduced dosage (Figure 6), comparable to 0.1 mg/kg of HC-070) is recorded as “significantly reduce”. Further, in data set [2] (oral 0.1, 0.3, 1 mg/kg, before versus after administration (Figure 4)), the “immobility time of mice” value is “significantly reduced”. Further, the “number of buried marbles” value in data set [3] (oral 0.03 mg/kg) is reported as “can reduce”; in data set [3] (oral 0.1 mg/kg, better than the same dose of HC-070), “more obvious”. For the same compound, in data set [3] (oral 0.1-1 mg/kg, before versus after administration (Figure 3)), the “number of marbles buried by mice” value is listed as “significantly reduced”. Also, in data set [4], the “concentration in each tissue” value is given as “significantly higher than that in plasma”. The compound further had a t1/2 in data set [6] (10 mg/kg (PO), 10 mg/kg) of 4.88 ± 0.80 h. The F in data set [6] (10 mg/kg (PO), oral bioavailability, 10 mg/kg) was 62.2% and 62.2 ± 15.9%. Besides, the area under the curve AUC(0-inf) in data set [6] (setting [7]) is 1170 ± 406 ng·h/mL; in data set [6] (setting [8]), 7220 ± 1850 ng·h/mL. Besides, the Cmax in data set [6] (setting [7]) was 772 ± 92 ng/mL; in data set [6] (male, rat, plasma, 10 mg/kg (PO), Mean±SD, N=3), 1600 ng/mL. In data set [6] (setting [7]), this compound gave a clearance of 15.4 ± 4.98 mL/min/kg. The results for the half-life in data set [6] (setting [7]) and in data set [6] (setting [8]) were 3.77 ± 2.14 h and 4.88 h, respectively. In addition, the Vd in data set [6] (male, SD, rat, plasma, 1 mg/kg (IV), read-out: VSS) came to 2.94 ± 0.79 L/kg. In addition, the Tmax in data set [6] (setting [8]) stood at 0.5 h.
